Source: PubChem BioAssay AID250 (DTP/NCI, 2004)
Values joined by “and” are separate entries in the source; they are usually repeats but may differ in a detail not shown here. Equal entries are not always repeated. Toxic doses and inconclusive results are not listed.

Tested on: BDF1 mice, L1210 leukemia sc, survival T/C
Experiment: NCI In Vivo Anticancer Drug Screen. Data for tumor model L1210 Leukemia (subcutaneous) in B6D2F1 (BDF1) mice
Details: endpoint: median survival time, higher = longer survival
Protocol: The antitumor activity of compounds was measured in mice bearing transplantable tumors. Survival or tumor size were measured and the results are expressed as the measurement made in the treated group (T) divided by the measurement made in the vehicle treated control group (C). The tumor model used in this assay is L1210 Leukemia (subcutaneous) in B6D2F1 (BDF1) mice

With CN(C)Nc1ncnc2nc[nH]c12 the T/C (dose: 8.4 mg/kg/injection, schedule: Q01DX Z (sc), vehicle: water) was 100 % of control, the T/C (dose: 14.0 mg/kg/injection, schedule: Q01DX Z (sc), vehicle: water) was 100 % of control and the T/C (dose: 23.0 mg/kg/injection, schedule: Q01DX Z (sc), vehicle: water) was 111 % of control. For the same compound, the T/C (dose: 39.0 mg/kg/injection, schedule: Q01DX Z (sc), vehicle: water) was 105 % of control, the T/C (dose: 65.0 mg/kg/injection, schedule: Q01DX Z (sc), vehicle: water) was 111 % of control and the T/C (dose: 108.0 mg/kg/injection, schedule: Q01DX Z (sc), vehicle: water) was 100 % of control.

For N=[N+]=CC(=O)CCC(NC(=O)C(CCC(=O)C=[N+]=N)NC(=O)CCC(N)C(=O)O)C(=O)O (centres undefined), the T/C (dose: 0.1 mg/kg/injection, schedule: Q01DX009 (ip), vehicle: water) was 94 % of control, the T/C (dose: 0.1 mg/kg/injection, schedule: Q01DX009 (sc), vehicle: water) was 95 % of control and 106 % of control and the T/C (dose: 0.2 mg/kg/injection, schedule: Q01DX009 (ip), vehicle: water) was 94 % of control. The T/C (dose: 0.2 mg/kg/injection, schedule: Q01DX009 (sc), vehicle: water) was 102 % of control, the T/C (dose: 0.4 mg/kg/injection, schedule: Q01DX009 (ip), vehicle: water) was 95 % of control and the T/C (dose: 0.4 mg/kg/injection, schedule: Q01DX009 (sc), vehicle: water) was 103 % of control. The T/C (dose: 0.8 mg/kg/injection, schedule: Q01DX009 (ip), vehicle: water) was 95 % of control, the T/C (dose: 0.8 mg/kg/injection, schedule: Q01DX009 (sc), vehicle: water) was 101 % of control and 102 % of control and the T/C (dose: 1.6 mg/kg/injection, schedule: Q01DX009 (ip), vehicle: water) was 91 % of control. The T/C (dose: 1.6 mg/kg/injection, schedule: Q01DX009 (sc), vehicle: water) was 103 % of control and 106 % of control.

With CCN(O)C(N)=O the T/C (dose: 1.0 mg/kg/injection, schedule: Q01DX Z (sc), vehicle: methylcellulose (MC)) was 95 % of control, the T/C (dose: 2.0 mg/kg/injection, schedule: Q01DX Z (sc), vehicle: methylcellulose (MC)) was 104 % of control and the T/C (dose: 4.0 mg/kg/injection, schedule: Q01DX Z (sc), vehicle: methylcellulose (MC)) was 91 % of control. The T/C (dose: 8.0 mg/kg/injection, schedule: Q01DX Z (sc), vehicle: methylcellulose (MC)) was 100 % of control, the T/C (dose: 16.0 mg/kg/injection, schedule: Q01DX Z (sc), vehicle: methylcellulose (MC)) was 100 % of control and the T/C (dose: 31.0 mg/kg/injection, schedule: Q01DX Z (sc), vehicle: methylcellulose (MC)) was 100 % of control. For the same compound, the T/C (dose: 62.0 mg/kg/injection, schedule: Q01DX Z (sc), vehicle: methylcellulose (MC)) was 100 % of control, the T/C (dose: 125.0 mg/kg/injection, schedule: Q01DX Z (sc), vehicle: methylcellulose (MC)) was 100 % of control and the T/C (dose: 250.0 mg/kg/injection, schedule: Q01DX Z (sc), vehicle: methylcellulose (MC)) was 112 % of control.

Nc1cc(=O)[nH][nH]1 was tested, and the T/C (dose: 300.0 mg/kg/injection, schedule: Q01DX Z (sc), vehicle: saline) was 100 % of control, the T/C (dose: 500.0 mg/kg/injection, schedule: Q01DX Z (sc), vehicle: saline) was 105 % of control and the T/C (dose: 833.0 mg/kg/injection, schedule: Q01DX Z (sc), vehicle: saline) was 90 % of control. For the same compound, the T/C (dose: 1388.0 mg/kg/injection, schedule: Q01DX Z (sc), vehicle: saline) was 90 % of control.

For O=c1[nH]cc(N(CCCl)CCCl)c(=O)[nH]1, the T/C (dose: 0.23 mg/kg/injection, schedule: Q01DX Z (sc), vehicle: other) was 100 % of control, the T/C (dose: 0.39 mg/kg/injection, schedule: Q01DX Z (sc), vehicle: other) was 100 % of control and the T/C (dose: 0.65 mg/kg/injection, schedule: Q01DX Z (sc), vehicle: other) was 100 % of control. The T/C (dose: 1.08 mg/kg/injection, schedule: Q01DX Z (sc), vehicle: other) was 100 % of control, the T/C (dose: 1.8 mg/kg/injection, schedule: Q01DX Z (sc), vehicle: other) was 105 % of control and 110 % of control and the T/C (dose: 3.0 mg/kg/injection, schedule: Q01DX Z (sc), vehicle: other) was 110 % of control and 115 % of control. The T/C (dose: 5.0 mg/kg/injection, schedule: Q01DX Z (sc), vehicle: other) was 150 % of control and 160 % of control, the T/C (dose: 8.4 mg/kg/injection, schedule: Q01DX Z (sc), vehicle: other) was 100 % of control and 120 % of control and the T/C (dose: 14.0 mg/kg/injection, schedule: Q01DX Z (sc), vehicle: other) was 120 % of control.

In the case of CCOC1=C(N2CC2)C(=O)C(OCC)=C(N2CC2)C1=O, the T/C (dose: 3.0 mg/kg/injection, schedule: Q01DX Z (sc), vehicle: carboxymethylcellulose (CMC)) is reported as 109 % of control, the T/C (dose: 14.0 mg/kg/injection, schedule: Q01DX Z (sc), vehicle: carboxymethylcellulose (CMC)) is reported as 122 % of control and the T/C (dose: 23.0 mg/kg/injection, schedule: Q01DX Z (sc), vehicle: carboxymethylcellulose (CMC)) is reported as 109 % of control.

In the case of CN(N=O)C(=O)Nc1c[nH]c(=O)[nH]c1=O, the T/C (dose: 14.0 mg/kg/injection, schedule: Q01DX Z (sc), vehicle: saline) is reported as 90 % of control, the T/C (dose: 23.0 mg/kg/injection, schedule: Q01DX Z (sc), vehicle: saline) is reported as 100 % of control and the T/C (dose: 39.0 mg/kg/injection, schedule: Q01DX Z (sc), vehicle: saline) is reported as 105 % of control. The T/C (dose: 65.0 mg/kg/injection, schedule: Q01DX Z (sc), vehicle: saline) was 95 % of control and the T/C (dose: 108.0 mg/kg/injection, schedule: Q01DX Z (sc), vehicle: saline) was 100 % of control.

COc1cccc(/C=N/NC(N)=S)c1 was tested, and the T/C (dose: 78.0 mg/kg/injection, schedule: Q01DX Z (sc), vehicle: water) was 100 % of control, the T/C (dose: 130.0 mg/kg/injection, schedule: Q01DX Z (sc), vehicle: water) was 105 % of control and the T/C (dose: 216.0 mg/kg/injection, schedule: Q01DX Z (sc), vehicle: water) was 100 % of control.
